Experimental data reported in ChEMBL document CHEMBL5360657, “Discovery of the TLR7/8 Antagonist MHV370 for Treatment of Systemic Autoimmune Diseases” (ACS Med Chem Lett, 2023).

Key:
[1] = Volume of distribution at steady state in mouse at 3 mg/kg, iv; assay type: ADME, organism-based; conditions: in vivo, read-out: Vdss
[2] = AUC in mouse at 20 mg/kg, po; assay type: ADME, organism-based; parameters: dose 20 mg/kg, route po; conditions: in vivo
[3] = Clast in mouse at 20 mg/kg, po; assay type: ADME, organism-based; conditions: in vivo, read-out: Clast
[4] = Tlast in mouse at 20 mg/kg, po; assay type: ADME, organism-based; conditions: in vivo
[5] = Oral bioavailability in mouse at 20 mg/kg; assay type: ADME, organism-based; conditions: in vivo
[6] = Efflux ratio of permeability basolateral to apical over apical to basolateral side in human Caco-2 cells; assay type: ADME, cell-based
[7] = target: Toll-like receptor 4 (Homo sapiens, UniProt O00206); assay: Antagonist activity at TLR4 in human PBMC cells assessed as reduction in IL-6 level measured after 20 hrs by AlphaLISA assay; assay type: cell-based
[8] = target: T1, Toll-like receptor 9 (Homo sapiens, UniProt Q9NR96); assay: Antagonist activity at TLR9 in human Whole blood cell assessed as reduction in IFN-alpha level measured after 30 mins; assay type: tissue-based
T1 sequence (Q9NR96 whole entry): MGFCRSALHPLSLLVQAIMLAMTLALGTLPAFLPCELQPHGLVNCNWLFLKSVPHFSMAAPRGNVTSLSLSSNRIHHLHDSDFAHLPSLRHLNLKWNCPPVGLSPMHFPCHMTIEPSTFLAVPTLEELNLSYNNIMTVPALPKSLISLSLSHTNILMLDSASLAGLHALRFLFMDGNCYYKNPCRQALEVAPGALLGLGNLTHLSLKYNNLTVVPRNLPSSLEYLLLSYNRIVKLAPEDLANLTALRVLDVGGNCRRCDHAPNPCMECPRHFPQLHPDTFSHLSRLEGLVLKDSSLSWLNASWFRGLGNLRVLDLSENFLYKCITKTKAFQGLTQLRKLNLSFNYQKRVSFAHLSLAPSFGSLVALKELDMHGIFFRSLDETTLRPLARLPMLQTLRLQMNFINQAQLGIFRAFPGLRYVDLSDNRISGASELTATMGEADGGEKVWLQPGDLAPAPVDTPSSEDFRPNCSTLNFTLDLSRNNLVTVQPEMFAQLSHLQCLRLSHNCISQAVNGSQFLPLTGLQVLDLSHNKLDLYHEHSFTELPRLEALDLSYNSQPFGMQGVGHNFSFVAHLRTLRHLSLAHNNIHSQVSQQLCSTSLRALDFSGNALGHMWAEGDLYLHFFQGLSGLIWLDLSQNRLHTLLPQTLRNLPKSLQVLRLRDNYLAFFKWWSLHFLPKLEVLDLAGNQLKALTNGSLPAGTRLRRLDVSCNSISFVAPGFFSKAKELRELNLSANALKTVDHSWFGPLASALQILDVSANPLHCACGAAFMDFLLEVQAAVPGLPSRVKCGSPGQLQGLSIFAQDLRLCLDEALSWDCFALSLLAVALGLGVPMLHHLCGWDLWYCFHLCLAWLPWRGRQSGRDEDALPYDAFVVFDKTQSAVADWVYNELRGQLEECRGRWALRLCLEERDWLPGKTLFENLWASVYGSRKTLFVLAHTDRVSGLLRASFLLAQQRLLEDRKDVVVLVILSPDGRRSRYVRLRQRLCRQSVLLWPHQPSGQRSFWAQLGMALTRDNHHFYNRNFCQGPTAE

[9] = target: T2, Toll-like receptor 4 (Mus musculus, UniProt Q9QUK6); assay: Antagonist activity at TLR4 in mouse Splenocyte assessed as reduction IL-6 level measured after 20 hrs by Spectramax M5 method; assay type: cell-based
T2 sequence (Q9QUK6 whole entry): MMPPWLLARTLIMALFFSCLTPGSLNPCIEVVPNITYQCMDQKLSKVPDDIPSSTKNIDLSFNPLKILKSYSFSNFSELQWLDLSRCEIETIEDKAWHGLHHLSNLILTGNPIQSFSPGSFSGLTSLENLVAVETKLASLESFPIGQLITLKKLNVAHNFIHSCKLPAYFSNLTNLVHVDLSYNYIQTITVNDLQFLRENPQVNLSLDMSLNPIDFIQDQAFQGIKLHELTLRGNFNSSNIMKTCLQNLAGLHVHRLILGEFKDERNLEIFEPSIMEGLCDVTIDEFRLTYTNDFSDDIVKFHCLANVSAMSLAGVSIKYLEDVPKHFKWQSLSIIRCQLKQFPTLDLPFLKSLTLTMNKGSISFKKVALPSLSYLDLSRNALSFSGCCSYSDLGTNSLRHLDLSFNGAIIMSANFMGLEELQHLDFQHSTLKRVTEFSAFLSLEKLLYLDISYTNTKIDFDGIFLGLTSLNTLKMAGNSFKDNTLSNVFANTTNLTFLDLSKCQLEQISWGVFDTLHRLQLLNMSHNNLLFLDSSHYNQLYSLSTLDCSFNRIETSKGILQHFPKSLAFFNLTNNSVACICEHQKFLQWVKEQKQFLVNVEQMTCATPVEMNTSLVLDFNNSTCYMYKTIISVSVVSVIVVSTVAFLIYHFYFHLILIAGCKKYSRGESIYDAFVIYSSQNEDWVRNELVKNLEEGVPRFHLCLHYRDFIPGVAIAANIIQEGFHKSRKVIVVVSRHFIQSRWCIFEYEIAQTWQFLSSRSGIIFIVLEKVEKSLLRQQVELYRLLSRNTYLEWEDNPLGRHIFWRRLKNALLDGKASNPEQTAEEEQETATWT

[10] = target: T2, Toll-like receptor 4; assay: Antagonist activity at TLR4 in mouse Whole blood cell assessed as reduction in IL-6 level measured after 20 hrs by HTRF method; assay type: tissue-based
[11] = target: Toll-like receptor 7 (Mus musculus) (UniProt P58681); assay: In vivo antagonist activity against TLR7 in mouse assessed as suppression of IFN alpha level at 3 mg/kg, po measured at 3 hrs by LC-MS/MS analysis
[12] = target: Toll-like receptor 7 (Mus musculus) (UniProt P58681); assay: In vivo antagonist activity against TLR7 in mouse assessed as suppression of IFN alpha level at 1 mg/kg, po measured at 3 hrs by LC-MS/MS analysis
[13] = target: Toll-like receptor 7 (Mus musculus) (UniProt P58681); assay: In vivo antagonist activity against TLR7 in mouse assessed as inhibition of IL-6 level at 10 mg/kg, po measured after 2 hrs by LC-MS/MS analysis relative to control

Toll-like receptor 4 (Homo sapiens, UniProt O00206), sequence (O00206 whole entry): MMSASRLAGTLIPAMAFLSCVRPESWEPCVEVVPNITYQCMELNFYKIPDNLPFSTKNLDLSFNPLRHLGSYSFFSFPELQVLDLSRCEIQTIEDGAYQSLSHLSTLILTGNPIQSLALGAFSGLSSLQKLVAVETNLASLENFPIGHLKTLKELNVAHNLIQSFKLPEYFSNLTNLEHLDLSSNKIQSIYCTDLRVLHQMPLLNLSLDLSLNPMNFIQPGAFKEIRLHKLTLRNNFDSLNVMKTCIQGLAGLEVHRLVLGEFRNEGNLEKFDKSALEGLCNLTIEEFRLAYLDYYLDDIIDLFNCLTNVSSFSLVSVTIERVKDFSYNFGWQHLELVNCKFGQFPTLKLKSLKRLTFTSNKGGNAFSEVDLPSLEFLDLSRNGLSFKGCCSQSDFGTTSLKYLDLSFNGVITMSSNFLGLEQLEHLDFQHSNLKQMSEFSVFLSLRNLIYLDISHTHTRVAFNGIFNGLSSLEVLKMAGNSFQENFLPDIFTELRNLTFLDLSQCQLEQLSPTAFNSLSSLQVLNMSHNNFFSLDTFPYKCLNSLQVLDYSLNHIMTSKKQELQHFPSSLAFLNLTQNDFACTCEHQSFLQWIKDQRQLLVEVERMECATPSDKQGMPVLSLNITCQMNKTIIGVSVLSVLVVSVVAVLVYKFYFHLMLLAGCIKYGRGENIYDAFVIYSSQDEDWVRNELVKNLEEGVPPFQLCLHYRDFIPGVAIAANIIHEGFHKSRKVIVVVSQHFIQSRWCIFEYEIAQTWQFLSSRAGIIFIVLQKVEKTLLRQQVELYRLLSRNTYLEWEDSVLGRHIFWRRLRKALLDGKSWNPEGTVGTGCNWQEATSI

| Vd [1] [L/kg] | AUC [2] [µM·h] | concentration [3] [nM] | Tlast [4] [h] | bioavailability [5] [%] | efflux ratio [6] | SMILES | IC50 [7] [µM] | IC50 [8] [µM] | IC50 [9] [µM] | IC50 [10] [µM] | Activity [11] [ng/mL] | Activity [12] [ng/mL] | inhibition in vivo at 10 mg/kg [13] [%] |
| --- | --- | --- | --- | --- | --- | --- | --- | --- | --- | --- | --- | --- | --- |
| 4.1 | 1.15 | 35 | 7 | 4 | 7.5 | Cc1cc(N2CCc3c(c(C)nn3CC34CCC(N)(CC3)CC4)C2)c2cnn(C)c2n1 |  |  |  |  |  |  |  |
|  |  |  |  |  |  | Cc1cc(N2CCc3c(c(C)nn3CC34CCC(NC(=O)[C@@H]5COCCN5)(CC3)CC4)C2)c2cnn(C)c2n1 [MHV-370] | > 10 | 1.2 | > 10 | > 10 | 141 | 25 | ~100 |
